Reference: patent publication US6066642A, “Dihydropyridine-, pyridine-, benzopyran-4-one- and triazoloquinazoline derivative, their preparation and their use as adenosine receptor antagonists” (priority 1998, dated 2000)
Like-named read-outs stand apart in the source and are kept apart here. One block for each compound: values may come before it.

Assays:
[1] = target: T1, A2a receptors (Rattus norvegicus, UniProt P30543); test: radioligand binding, displacement of specific [3H]CGS 21680 binding in rat striatal membranes; settings: for Ki: [3H]CGS 21680, rat striatal membranes; for inhibition at 100 µM: 10^-4 M
T1 construct: Displacement of specific [^3 H]; from tissue; host or cells: rat striatal membranes
T1 sequence (P30543 whole entry): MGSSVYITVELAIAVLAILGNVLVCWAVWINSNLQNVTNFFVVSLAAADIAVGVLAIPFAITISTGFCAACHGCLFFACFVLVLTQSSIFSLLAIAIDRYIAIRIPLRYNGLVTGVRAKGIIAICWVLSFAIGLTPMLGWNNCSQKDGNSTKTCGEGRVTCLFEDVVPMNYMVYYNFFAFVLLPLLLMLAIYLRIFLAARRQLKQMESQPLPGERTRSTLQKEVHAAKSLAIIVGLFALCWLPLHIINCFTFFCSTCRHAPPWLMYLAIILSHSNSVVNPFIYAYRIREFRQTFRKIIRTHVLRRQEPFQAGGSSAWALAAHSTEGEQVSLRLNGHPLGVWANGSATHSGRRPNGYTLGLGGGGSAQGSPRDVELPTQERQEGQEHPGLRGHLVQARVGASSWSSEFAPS
Protocol: ^b Displacement of specific [^3 H]
or as a percentage of specific binding displaced at 100 μM.

[2] = target: T2, human A3 receptors (Homo sapiens, UniProt P0DMS8); test: radioligand binding, displacement of specific [125I]AB-MECA binding at human A3 receptors expressed in HEK-293 cells; settings: for inhibition at 100 µM: 10^-4 M; for Ki: [125I]AB-MECA; for inhibition at 10 µM: 10^-5 M
T2 construct: expressed in transfected cells; host or cells: HEK-293 cells (membranes)
T2 sequence (P0DMS8 1-318): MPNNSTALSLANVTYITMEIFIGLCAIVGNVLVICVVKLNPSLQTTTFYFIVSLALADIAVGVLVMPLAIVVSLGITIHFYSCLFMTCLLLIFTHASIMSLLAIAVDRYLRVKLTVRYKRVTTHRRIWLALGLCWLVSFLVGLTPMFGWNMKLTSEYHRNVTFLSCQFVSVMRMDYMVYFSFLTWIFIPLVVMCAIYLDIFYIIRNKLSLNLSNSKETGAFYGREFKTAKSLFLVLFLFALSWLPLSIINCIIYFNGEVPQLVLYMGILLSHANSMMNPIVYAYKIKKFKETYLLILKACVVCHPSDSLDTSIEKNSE
Protocol: A3 receptors expressed in HEK293 cells, in membranes, expressed as
binding displaced at 100 μM.

[3] = target: T3, A1 receptors (Rattus norvegicus, UniProt P25099); test: biochemical; type: binding
T3 sequence (P25099 1-326): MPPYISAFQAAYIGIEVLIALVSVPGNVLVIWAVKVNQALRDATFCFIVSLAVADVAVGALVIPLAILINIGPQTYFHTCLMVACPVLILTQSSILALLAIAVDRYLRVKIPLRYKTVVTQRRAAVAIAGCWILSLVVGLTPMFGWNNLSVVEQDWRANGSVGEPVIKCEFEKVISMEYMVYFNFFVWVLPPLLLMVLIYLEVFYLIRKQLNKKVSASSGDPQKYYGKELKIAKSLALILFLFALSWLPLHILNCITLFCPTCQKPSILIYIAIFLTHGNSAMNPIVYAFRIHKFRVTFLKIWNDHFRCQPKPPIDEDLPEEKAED
Protocol: ^a Displacement of specific [^3 H] PIA binding in rat brain
percentage of specific binding displaced at 100 μM.

[4] = Table 6, [3H]PIA, rat brain membranes, read-out: K2 (rA1)
[5] = Table 6, HEK-293 membranes, read-out: K2 (hA3)
[6] = Table 7, read-out: % of specific binding displaced hA3
[7] = Table 12, read-out: % inhibition rA2A

SMILES: COc1cc2c3c(oc(=O)c2cc1OC)CCCC3=O [Compound 45]
Ki ([1]; Table 7, read-out: Ki (rA2A)): 29.9 ± 10.1 µM
inhibition at 100 µM ([2]; Table 7, read-out: displacement of specific binding hA3): < 10%

SMILES: COc1ccc(-c2oc3cc(OC)cc(OC)c3c(=O)c2OC)cc1 [Compound 35, 3,4',5,7-tetramethoxyflavone]
Ki [3, 4]: 1.07 µM
Ki [2, 5]: 3.37 ± 1.83 µM

inhibition at 100 µM ([1]; Table 7, read-out: displacement of specific binding rA2A): < 10%
Ki ([3]; Table 7, [3H]PIA, rat brain membranes, read-out: Ki (rA1)): 8.8 ± 3.6 µM
inhibition at 10 µM [2, 6]: 12 ± 1%
SMILES: O=c1cc(-c2ccccc2)oc2ccc3ccccc3c12 [Compound 44, β-naphthoflavone, reference compound]

SMILES: CC(=O)Oc1cc(OC(C)=O)c2c(=O)c(OC(C)=O)c(-c3ccccc3)oc2c1 [Compound 34, 3,5,7-triacetoxyflavone]
Ki ([1]; Table 6, read-out: K2 (rA2a)): 56.5 ± 9.5 µM
Ki [3, 4]: 11.6 ± 4.4 µM
Ki [2, 5]: 17.5 ± 2 µM

Ki ([1]; Table 9, read-out: Ki rA2A): 4.77 ± 0.29 µM
SMILES: CCOC(=O)C1=C(C)NC(c2ccccc2)=C(C(=O)OCC)C1/C=C/c1ccccc1 (stereo not drawn) [Compound 79]
greater affinity for A3 than A1 or A2a adenosine receptors ([2]; selectivity in words): greater affinity for A3 adenosine receptors than A1 or A2a adenosine receptors

SMILES: CCOC(=O)C1=C(C)NC(c2ccccc2)=C(C(=O)O)C1C#Cc1ccccc1 (racemic) [Compound 131, 3-Ethoxycarbonyl-2-methyl-4-phenylethynyl-6-phenyl-1,4(±)-dihydropyridine-5-carboxylic acid]
inhibition at 100 µM [1, 7]: 16 ± 6%
inhibition at 10 µM ([2]; Table 12, read-out: displacement of specific binding hA3): < 10%

Ki ([3]; Table 16, [3H]R-PIA, rat brain membranes, read-out: Ki rA1): 0.028 µM
Ki ([2]; Table 16, HEK membranes, read-out: Ki hA3): 0.0087 ± 0.00097 µM
SMILES: O=C(Cc1ccc([N+](=O)[O-])cc1)Nc1nc2ccc(Cl)cc2c2nc(-c3ccco3)nn12 [Compound 162]

inhibition at 1 µM ([3]; Table 6, 10^-6 M, read-out: displacement of specific binding rA1): < 10%
Ki [2, 5]: 16.2 ± 2.2 µM
SMILES: COc1cc(OC)c2c(=O)c(OC)c(-c3cc(OC)c(OC)c(OC)c3)oc2c1 [Compound 39, hexamethylmyricetin]

SMILES: COc1ccc(-c2ccncc2)cc1 [Compound 83]
Ki ([1]; Table 10, read-out: Ki rA2a): 71 ± 29 µM
inhibition at 100 µM ([2]; Table 10, read-out: displacement of specific binding hA3): < 10%

SMILES: O=C1c2ccccc2O[C@H](c2ccccc2O)[C@H]1O (relative stereo) [Compound 14, reference compound]
inhibition at 100 µM ([1]; Table 4, read-out: displacement of specific binding rA2a): < 10%
inhibition at 100 µM ([2]; Table 4, read-out: % of specific binding displaced hA3): 27 ± 3%
rA1/hA3 ([2]; Table 4, ratio of Ki): < 1

SMILES: O=C1c2ccccc2-c2cc3c(cc21)OCO3 [Compound 49, 2,3-methylenedioxy-fluorene-9-one]
Ki ([1]; Table 7, read-out: Ki (rA2A)): 84 ± 6.9 µM
inhibition at 100 µM [2, 6]: 52 ± 6%

SMILES: CCOCN1C(C)=C(C(=O)OCC)C(C#Cc2ccccc2)C(C(=O)O)=C1c1ccccc1 (racemic) [Compound 139, 1-Ethoxymethyl-3-ethoxycarbonyl-2-methyl-4-phenylethynyl-6-phenyl-1,4-(±)-dihydropyridine-5-carboxylic acid]
inhibition at 100 µM [1, 7]: 36 ± 7%
rA1/hA3 [2]: > 1
Ki ([2]; Table 12, HEK membranes, read-out: Ki hA3): > 100 µM

Ki ([3]; Table 9, [3H]PIA, rat brain membranes, read-out: Ki rA1): 20.1 µM
Ki ([2]; Table 9, HEK membranes, read-out: Ki hA3): 8.47 µM
SMILES: COCCOC(=O)C1=C(C)NC(C)=C(C(=O)OC(C)C)C1c1cccc([N+](=O)[O-])c1 (stereo not drawn) [Compound 64, reference compound]
greater affinity to A1 than A2a adenosine receptors ([3]; selectivity in words): greater affinity to A1 adenosine receptors than A2a receptors
greater affinity for A3 than A1 or A2a adenosine receptors ([2]; selectivity in words): greater affinity for A3 adenosine receptors than A1 or A2a adenosine receptors

SMILES: COc1ccc(-c2cc(=O)c3c(OC)c(OC)c(OC)cc3o2)cc1 [Compound 31, reference compound]
Ki ([3]; brain membranes, read-out: K2 (rA1)): 1.29 ± 0.08 µM
Ki [2, 5]: 4.48 ± 0.14 µM

SMILES: COC(=O)C1=C(C)NC(C)=C(C(=O)OCCCN2CCC(c3ccccc3)(c3ccccc3)CC2)C1c1cccc([N+](=O)[O-])c1 (stereo not drawn) [Compound 65, reference compound]
greater affinity to A1 than A2a adenosine receptors [3]: greater affinity to A1 adenosine receptors than A2a receptors
greater affinity for A3 than A1 or A2a adenosine receptors [2]: greater affinity for A3 adenosine receptors than A1 or A2a adenosine receptors
